{
  "source": "patent US5395947A",
  "about": "“Platinum(II) complex and processes for preparing the same” (Sunkyong Industries, Ltd., priority 1991, dated 1995)",
  "key": {"murine leukemia L1210": {"test_system": "murine leukemia L1210", "assay": "Antitumor activity test on murine leukemia L1210 in vivo", "parameters": "species or system male BDF1 mice", "conditions": "days 1, 5, 9", "method_in_brief": "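Intraperitoneal L1210 model: 1×10^6 cells inoculated i.p. into 6-week-old male BDF1 mice (21±3 g) on day 0, seven per group. Compounds in 0.5% CMC given i.p. on days 1, 5 and 9; vehicle-only controls. T/C % from mean survival time of treated over control.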"}, "[1]": {"test_system": "murine leukemia L1210 cells", "assay": "Growth inhibition test on cultured murine leukemia L1210 cells", "type": "cell-based", "conditions": "48 hours, 37° C., Trypan blue viability", "method_in_brief": "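L1210 cells (1×10^5) exposed to graded compound concentrations in RPMI 1640 with 10% fetal calf serum, 37° C, 5% CO2, 48 h. Viability by 0.17% Trypan blue staining, relative to untreated control cells.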"}, "Test for nephrotoxicity": {"assay": "Test for nephrotoxicity", "type": "in vivo, male ICR mice", "conditions": "75.0 mg/kg i.p. once", "experimental": "4. Test for nephrotoxicity\nThe compounds of the present invention were dissolved or suspended in 0.5% CMC solution(in water) and were administered intraperitoneally one time to 8-week-old male ICR mice weighing 30±3 g. Each treatment and control groups consisted of six mice.\nThe administration amount of the test compound was 1.5 times the optimum dose obtained in Table 2, or more. On days 1, 4 and 8 after administration, their blood was collected under ether anesthesia for measurement of blood urea nitrogen concentration (BUN value) and creatinine concentration.\nA pair of kidneys were taken and, after immediate weighing, were stored in a 10% neutral buffered formalin solution. The body weight ratio shown in Table 5 is a ratio of the body weight measured on days 1, 4 and 8 from the administration of the compound to the body weight measured on the administration day."}, "ICR mice": {"test_system": "ICR mice", "assay": "Acute toxicity test", "type": "in vivo", "parameters": "Lethality: unit not given here", "conditions": "for Lethality: 10080 min", "method_in_brief": "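Male and female 7-week-old ICR mice, 6 per group, dosed intraperitoneally. Signs and survival followed for 7 days, with autopsy of animals that died.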"}, "[2]": {"assay": "Test for water solubility", "type": "physicochemical", "conditions": "water", "text": "3. Test for water solubility\nA standard plot of UV absorbance(220 nm) vs. concentration was made; and employed to determine water-solubility.\nThe mixture was then passed through a 0.45 micron disposable membrane filter before dilution and UV measurement."}},
  "data": [
    {"smiles": "CCC1(CC)OC2C[NH2+][Pt-2]3([NH2+]CC2O1)[O]C(=O)CC(=O)[O]3", "note": "[Example 37, cis-malonato[(4R,5R)-4,5-bis(aminomethyl)-2,2-diethyl-1,3-dioxolane]platinum(II)]", "values": [
      {"measurement": "T/C (%)", "setting": "murine leukemia L1210; 12.5 mg/kg i.p.", "value": 130, "unit": "%"},
      {"measurement": "T/C (%)", "setting": "murine leukemia L1210; 25 mg/kg i.p.", "value": 180, "unit": "%"},
      {"measurement": "T/C (%)", "setting": "murine leukemia L1210; 50 mg/kg i.p.", "value": 231, "unit": "%"},
      {"measurement": "IC50 (concentration required for 50% inhibition of growth)", "setting": "[1]", "value": 0.42, "unit": "µg/mL"},
      {"measurement": "BUN, 1st day", "setting": "Test for nephrotoxicity", "value": 27.5, "unit": "mg/100 ml"},
      {"measurement": "BUN, 4th day", "setting": "Test for nephrotoxicity", "value": 26.4, "unit": "mg/100 ml"},
      {"measurement": "BUN, 8th day", "setting": "Test for nephrotoxicity", "value": 28.4, "unit": "mg/100 ml"}
    ]},
    {"smiles": "CCC1(CC)OC2C[NH2+][Pt-2]3([NH2+]CC2O1)[O]CC(=O)[O]3", "note": "[Example 8, (glycolato-O,O')[(4R,5R)-4,5-bis(aminomethyl)-2,2-diethyl-1,3-dioxolane]platinum(II)]", "values": [
      {"measurement": "T/C (%)", "setting": "murine leukemia L1210; 3.1 mg/kg i.p.", "value": 154, "unit": "%"},
      {"measurement": "T/C (%)", "setting": "murine leukemia L1210; 6.2 mg/kg i.p.", "value": 198, "unit": "%"},
      {"measurement": "T/C (%)", "setting": "murine leukemia L1210; 12.5 mg/kg i.p.", "value": 245, "unit": "%"},
      {"measurement": "T/C (%)", "setting": "murine leukemia L1210; 25 mg/kg i.p.", "value": "toxic"},
      {"measurement": "T/C (%)", "setting": "murine leukemia L1210; 50 mg/kg i.p.", "value": "toxic"},
      {"measurement": "IC50 (concentration required for 50% inhibition of growth)", "setting": "[1]", "value": 0.06, "unit": "µg/mL"},
      {"measurement": "Number of dead mice for 7 days", "setting": "ICR mice; female, 41.3 mg/kg i.p.", "value": "0/6"},
      {"measurement": "Number of dead mice, 1st day", "setting": "ICR mice; female, 41.3 mg/kg i.p.", "value": "0/6"},
      {"measurement": "Lethality", "setting": "ICR mice; female, 41.3 mg/kg i.p.", "value": 0.0},
      {"measurement": "Number of dead mice for 7 days", "setting": "ICR mice; female, 54.9 mg/kg i.p.", "value": "3/6"},
      {"measurement": "Number of dead mice, 1st day", "setting": "ICR mice; female, 54.9 mg/kg i.p.", "value": "0/6"},
      {"measurement": "Number of dead mice, 3rd day", "setting": "ICR mice; female, 54.9 mg/kg i.p.", "value": "1/6"},
      {"measurement": "Number of dead mice, 4th day", "setting": "ICR mice; female, 54.9 mg/kg i.p.", "value": "2/5"},
      {"measurement": "Lethality", "setting": "ICR mice; female, 54.9 mg/kg i.p.", "value": 50.0},
      {"measurement": "Number of dead mice for 7 days", "setting": "ICR mice; female, 71.4 mg/kg i.p.", "value": "5/6"},
      {"measurement": "Number of dead mice, 1st day", "setting": "ICR mice; female, 71.4 mg/kg i.p.", "value": "0/6"},
      {"measurement": "Number of dead mice, 4th day", "setting": "ICR mice; female, 71.4 mg/kg i.p.", "value": "2/6"},
      {"measurement": "Number of dead mice, 5th day", "setting": "ICR mice; female, 71.4 mg/kg i.p.", "value": "3/4"},
      {"measurement": "Lethality", "setting": "ICR mice; female, 71.4 mg/kg i.p.", "value": 83.7},
      {"measurement": "Number of dead mice for 7 days", "setting": "ICR mice; female, 91.8 mg/kg i.p.", "value": "6/6"},
      {"measurement": "Number of dead mice, 1st day", "setting": "ICR mice; female, 91.8 mg/kg i.p.", "value": "0/6"},
      {"measurement": "Number of dead mice, 2nd day", "setting": "ICR mice; female, 91.8 mg/kg i.p.", "value": "1/6"},
      {"measurement": "Number of dead mice, 3rd day", "setting": "ICR mice; female, 91.8 mg/kg i.p.", "value": "3/5"},
      {"measurement": "Number of dead mice, 4th day", "setting": "ICR mice; female, 91.8 mg/kg i.p.", "value": "2/2"},
      {"measurement": "Lethality", "setting": "ICR mice; female, 91.8 mg/kg i.p.", "value": 100.0},
      {"measurement": "Number of dead mice for 7 days", "setting": "ICR mice; male, 41.3 mg/kg i.p.", "value": "0/6"},
      {"measurement": "Number of dead mice, 1st day", "setting": "ICR mice; male, 41.3 mg/kg i.p.", "value": "0/6"},
      {"measurement": "Lethality", "setting": "ICR mice; male, 41.3 mg/kg i.p.", "value": 0.0},
      {"measurement": "Number of dead mice for 7 days", "setting": "ICR mice; male, 54.9 mg/kg i.p.", "value": "4/6"},
      {"measurement": "Number of dead mice, 1st day", "setting": "ICR mice; male, 54.9 mg/kg i.p.", "value": "0/6"},
      {"measurement": "Number of dead mice, 3rd day", "setting": "ICR mice; male, 54.9 mg/kg i.p.", "value": "2/6"},
      {"measurement": "Number of dead mice, 4th day", "setting": "ICR mice; male, 54.9 mg/kg i.p.", "value": "2/4"},
      {"measurement": "Lethality", "setting": "ICR mice; male, 54.9 mg/kg i.p.", "value": 66.7},
      {"measurement": "Number of dead mice for 7 days", "setting": "ICR mice; male, 71.4 mg/kg i.p.", "value": "5/6"},
      {"measurement": "Number of dead mice, 1st day", "setting": "ICR mice; male, 71.4 mg/kg i.p.", "value": "0/6"},
      {"measurement": "Number of dead mice, 3rd day", "setting": "ICR mice; male, 71.4 mg/kg i.p.", "value": "1/6"},
      {"measurement": "Number of dead mice, 4th day", "setting": "ICR mice; male, 71.4 mg/kg i.p.", "value": "4/5"},
      {"measurement": "Lethality", "setting": "ICR mice; male, 71.4 mg/kg i.p.", "value": 83.3},
      {"measurement": "Number of dead mice for 7 days", "setting": "ICR mice; male, 91.8 mg/kg i.p.", "value": "6/6"},
      {"measurement": "Number of dead mice, 1st day", "setting": "ICR mice; male, 91.8 mg/kg i.p.", "value": "0/6"},
      {"measurement": "Number of dead mice, 2nd day", "setting": "ICR mice; male, 91.8 mg/kg i.p.", "value": "2/6"},
      {"measurement": "Number of dead mice, 3rd day", "setting": "ICR mice; male, 91.8 mg/kg i.p.", "value": "4/4"},
      {"measurement": "Lethality", "setting": "ICR mice; male, 91.8 mg/kg i.p.", "value": 100.0},
      {"measurement": "Solubility in water", "setting": "[2]", "value": "> 30", "unit": "mg/mL"}
    ]}
  ]
}
